These results are taken from BindingDB's records for doi:10.1016/j.bmcl.2006.12.076 (Glaxosmithkline, 2007).

The nature of assay [1]: Antagonist activity at human recombinant CCR8 expressed in Th2 cells assessed as I309 mediated migration by chemotaxis assay.
Assay [2] is described as follows: Antagonist activity at human recombinant CCR8 expressed in HUT78 cells assessed as I309-mediated migration by chemotaxis assay.

Usually IC50 stands for the concentration at which inhibition is half-maximal. As for `COc1ccc2nccc([C@@H]3CN(C4CCN(Cc5cc6ccccc6[nH]5)CC4)C(=O)O3)c2c1` [SB-649701], the half-inhibitory concentration (IC50) in assay [1] was 100 nM; in assay [2] it was 501 nM.
